Measured values as given in PubChem BioAssay AID1259407 (Chemical Carcinogenesis Research Information System (CCRIS), 2018).
Activity calls are given as the source filed them. No rule for the calls is given here.

System: CCRIS mutagenicity, Ames/micronucleus/aberration tests
Assay: CCRIS mutagenicity studies
[1] = Test System: AMES SALMONELLA TYPHIMURIUM, Strain/Indicator: TA1535, Metabolic Activation: NONE, Method: STANDARD PLATE

In the case of `N#CC(Br)Br`, the mutagenic call (End Point: In vivo micronucleus, Test System: Peripheral blood normochromatic erythrocytes, Species: Mouse, Strain/Sex: B6C3F1/ Female, Route: Oral) is reported as “inactive; negative”, the mutagenic call (End Point: In vivo micronucleus, Test System: Peripheral blood normochromatic erythrocytes, Species: Mouse, Strain/Sex: B6C3F1/ Male, Route: Oral) is reported as “inactive; negative” and the mutagenic call (Test System: AMES SALMONELLA TYPHIMURIUM, Strain/Indicator: TA98, Metabolic Activation: NONE, Method: STANDARD PLATE) is reported as “inactive; negative”. The mutagenic call (Test System: AMES SALMONELLA TYPHIMURIUM, Strain/Indicator: TA98, Metabolic Activation: RAT, LIVER, S-9, AROCLOR 1254, Method: STANDARD PLATE) was “inactive; negative”, the mutagenic call (Test System: AMES SALMONELLA TYPHIMURIUM, Strain/Indicator: TA100, Metabolic Activation: NONE, Method: FLUCTUATION TEST) was “inactive; negative” and the mutagenic call (Test System: AMES SALMONELLA TYPHIMURIUM, Strain/Indicator: TA100, Metabolic Activation: NONE, Method: STANDARD PLATE) was “inactive; negative”. The mutagenic call (Test System: AMES SALMONELLA TYPHIMURIUM, Strain/Indicator: TA100, Metabolic Activation: RAT, LIVER, S-9, AROCLOR 1254, Method: FLUCTUATION TEST) was “inactive; negative”, the mutagenic call (Test System: AMES SALMONELLA TYPHIMURIUM, Strain/Indicator: TA100, Metabolic Activation: RAT, LIVER, S-9, AROCLOR 1254, Method: STANDARD PLATE) was “inactive; negative” and the mutagenic call [1] was “inactive; negative”. The mutagenic call (Test System: AMES SALMONELLA TYPHIMURIUM, Strain/Indicator: TA1535, Metabolic Activation: RAT, LIVER, S-9, AROCLOR 1254, Method: STANDARD PLATE) was “inactive; negative”, the mutagenic call (Test System: Ames Salmonella typhimurium, Strain/Indicator: TA97, Metabolic Activation: Hamster, Liver, S-9, Aroclor 1254 (10%), Method: Preincubation) was “active; positive” and the mutagenic call (Test System: Ames Salmonella typhimurium, Strain/Indicator: TA97, Metabolic Activation: Hamster, Liver, S-9, Aroclor 1254 (30%), Method: Preincubation) was “inactive; negative”. The mutagenic call (Test System: Ames Salmonella typhimurium, Strain/Indicator: TA97, Metabolic Activation: None, Method: Preincubation) was “active; positive”, the mutagenic call (Test System: Ames Salmonella typhimurium, Strain/Indicator: TA97, Metabolic Activation: Rat, Liver, S-9, Aroclor 1254 (10%), Method: Preincubation) was “active; positive” and the mutagenic call (Test System: Ames Salmonella typhimurium, Strain/Indicator: TA97, Metabolic Activation: Rat, Liver, S-9, Aroclor 1254 (30%), Method: Preincubation) was “inactive; negative”. The mutagenic call (Test System: Ames Salmonella typhimurium, Strain/Indicator: TA98, Metabolic Activation: Hamster, Liver, S-9, Aroclor 1254 (10%), Method: Preincubation) was “inactive; negative”, the mutagenic call (Test System: Ames Salmonella typhimurium, Strain/Indicator: TA98, Metabolic Activation: Hamster, Liver, S-9, Aroclor 1254 (10 and 30%), Method: Preincubation) was “inactive; negative” and the mutagenic call (Test System: Ames Salmonella typhimurium, Strain/Indicator: TA98, Metabolic Activation: None, Method: Preincubation) was “inactive; negative”. The mutagenic call (Test System: Ames Salmonella typhimurium, Strain/Indicator: TA98, Metabolic Activation: Rat, Liver, S-9, Aroclor 1254 (10%), Method: Preincubation) was “inactive; negative”, the mutagenic call (Test System: Ames Salmonella typhimurium, Strain/Indicator: TA98, Metabolic Activation: Rat, Liver, S-9, Aroclor 1254 (10 and 30%), Method: Preincubation) was “inactive; negative” and the mutagenic call (Test System: Ames Salmonella typhimurium, Strain/Indicator: TA100, Metabolic Activation: Hamster, Liver, S-9, Aroclor 1254 (30%), Method: Preincubation) was “inactive; negative”. For the same compound, the mutagenic call (Test System: Ames Salmonella typhimurium, Strain/Indicator: TA100, Metabolic Activation: Rat, Liver, S-9, Aroclor 1254 (10%), Method: Preincubation) was “inactive; negative”, the mutagenic call (Test System: Ames Salmonella typhimurium, Strain/Indicator: TA1535, Metabolic Activation: None, Method: Preincubation) was “inactive; negative” and the mutagenic call (Test System: Ames Salmonella typhimurium, Strain/Indicator: TA1535, Metabolic Activation: Rat, Liver, S-9, Aroclor 1254 (30%), Method: Preincubation) was “inactive; negative”. For the same compound, the mutagenic call (Test System: Ames Salmonella typhimurium, Strain/Indicator: TA1537, Metabolic Activation: Hamster, Liver, S-9, Aroclor 1254 (30%), Method: Preincubation) was “inactive; negative”, the mutagenic call (Test System: Ames Salmonella typhimurium, Strain/Indicator: TA1537, Metabolic Activation: None, Method: Preincubation) was “inactive; negative” and the mutagenic call (Test System: Ames Salmonella typhimurium, Strain/Indicator: TA1537, Metabolic Activation: Rat, Liver, S-9, Aroclor 1254 (10%), Method: Preincubation) was “inactive; negative”. The mutagenic call (Test System: Ames Salmonella typhimurium, Strain/Indicator: TA1538, Metabolic Activation: None, Method: Preincubation) was “inactive; negative”, the mutagenic call (Test System: E. coli, Strain/Indicator: WPM uvrA/pKM101, Metabolic Activation: Hamster, Liver, S-9, Aroclor 1254 (10%), Method: Preincubation) was “active; positive” and the mutagenic call (Test System: E. coli, Strain/Indicator: WPM uvrA/pKM101, Metabolic Activation: None, Method: Preincubation) was “inactive; negative”. The mutagenic call (Test System: E. coli, Strain/Indicator: WPM uvrA/pKM101, Metabolic Activation: Rat, Liver, S-9, Aroclor 1254 (10%), Method: Preincubation) was “inactive; negative”.

With `Cc1ccc2cc3c4c(ccc3c3c2c1CC3)C(O)C(O)C=C4` (stereo not given) the mutagenic call (Test System: CHINESE HAMSTER V-79, Strain/Indicator: V-79/8-AZAGUANINE, Metabolic Activation: NONE, Method: STANDARD PLATE) was “active; positive”.

For `CCOC(=O)CNC(=O)C=[N+]=[N-]`, the mutagenic call [1] was “active; positive” and the mutagenic call (Test System: UDS RODENT PRIMARY CELLS, Strain/Indicator: THY INCORP (NON-S-PHASE), Metabolic Activation: NONE, Method: AUTORADIOGRAPHY) was “active; positive”.

With `CCOC(=O)N(C)C` the mutagenic call (Test System: AMES SALMONELLA TYPHIMURIUM, Strain/Indicator: TA98, Metabolic Activation: NONE) was “inactive; negative”, the mutagenic call (Test System: AMES SALMONELLA TYPHIMURIUM, Strain/Indicator: TA100, Metabolic Activation: NONE) was “inactive; negative” and the mutagenic call (Test System: AMES SALMONELLA TYPHIMURIUM, Strain/Indicator: TA1535, Metabolic Activation: NONE) was “active; positive”. For the same compound, the mutagenic call (Test System: AMES SALMONELLA TYPHIMURIUM, Strain/Indicator: TA1535, Metabolic Activation: S-9, AROCLOR 1254) was “active; positive”.

With `Cc1cnc2ccc3c(nc(N[C@@H]4O[C@H](C(=O)O)[C@@H](O)[C@H](O)[C@H]4O)n3C)c2n1` the mutagenic call (Test System: AMES SALMONELLA TYPHIMURIUM, Strain/Indicator: TA98, Metabolic Activation: NONE, Method: PREINCUBATION) was “inactive; negative” and the mutagenic call (Test System: AMES SALMONELLA TYPHIMURIUM, Strain/Indicator: TA98, Metabolic Activation: RAT, LIVER, S-9, AROCLOR 1254, Method: PREINCUBATION) was “inactive; negative”.
